According to ChEMBL document CHEMBL4138125, “Recent advances in discovery and development of natural products as source for anti-Parkinson's disease lead compounds” (2017):

Experiments:
Format in all cases: functional
[1] = Neuroprotective activity in OF1/SPF […] brain dopaminergic neurons assessed as suppression of MPP+-induced cell death at 0.1 to 10 uM pre-incubated for 4 days tarting from day 8 before MPP+ challenge for 48 hrs
[2] = Neuroprotective activity in OF1/SPF […] brain dopaminergic neurons assessed as suppression of short-term rotenone -induced cell death at 0.1 to 10 uM pre-incubated for 4 days starting from day 8 before rotenone challenge for 48 hrs
[3] = Neuroprotective activity in OF1/SPF […] brain dopaminergic neurons assessed as suppression of long-term rotenone-induced cell death at 0.1 to 10 uM incubated concomitantly with rotenone from days 6 to 12

CC1=CC(=O)C(C(C)C)=CC1=O [THYMOQUINONE]
Activity [1]: 40%
Activity [2]: 33%
Activity [3]: 24%
